Data taken from the supplement of paper PMC10307832.

Assays:
Assay in all cases: relative viability (nuclei count vs DMSO), 5 days (fraction); higher = more cells survive
Idelalisib = compound: CC[C@H](Nc1ncnc2[nH]cnc12)c1nc2cccc(F)c2c(=O)n1-c1ccccc1 [Idelalisib]
Summary of the method: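 On vehicle-anchored 1536-well plates, lung cancer cell lines held overnight at 37 °C were pinned with five library-drug doses (not always all listed) spaced by √10. With no medium change over 5 days, they were then fixed, permeabilised and Hoechst-stained in one step and imaged at 4×. MetaXpress counted nuclei, and viability is the median across plates of treated-well over vehicle-well nuclei. Acceptance needed control CV below 25% and at least one doubling.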

Idelalisib + Foretinib = compound: CC[C@H](Nc1ncnc2[nH]cnc12)c1nc2cccc(F)c2c(=O)n1-c1ccccc1 [Idelalisib] + COc1cc2c(Oc3ccc(NC(=O)C4(C(=O)Nc5ccc(F)cc5)CC4)cc3F)ccnc2cc1OCCCN1CCOCC1 [Foretinib] (partner 0.25 µM)
Summary of the method: (§1)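 Lung cancer cell lines in 1536-well plates got either a single drug or a fixed anchor-drug dose together with five library-drug doses (not always all listed) in √10 steps, by pin tool, on the day after seeding. Nuclei were counted after 5 days, and relative viability is the treated-to-vehicle ratio of nuclei counts. Values are medians of duplicate plates.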

Idelalisib + Phenformin = compound: CC[C@H](Nc1ncnc2[nH]cnc12)c1nc2cccc(F)c2c(=O)n1-c1ccccc1 [Idelalisib] + N=C(N)NC(=N)NCCc1ccccc1 [Phenformin] (partner 250 µM)
Summary of the method: as §1

Pemetrexed + Dasatinib = compound: Nc1nc2[nH]cc(CCc3ccc(C(=O)N[C@@H](CCC(=O)O)C(=O)O)cc3)c2c(=O)[nH]1 [Pemetrexed] + Cc1nc(Nc2ncc(C(=O)Nc3c(C)cccc3Cl)s2)cc(N2CCN(CCO)CC2)n1 [Dasatinib] (partner 0.075 µM)
Summary of the method: as §1

Cell Line | relative viability (Idelalisib; 0.04 µM) | relative viability (Idelalisib; 0.1265 µM) | relative viability (Idelalisib; 0.4 µM) | relative viability (Idelalisib; 1.265 µM) | relative viability (Idelalisib; 4 µM) | relative viability (Idelalisib + Foretinib; first compound 0.04 µM) | relative viability (Idelalisib + Foretinib; first compound 0.1265 µM) | relative viability (Idelalisib + Foretinib; first compound 0.4 µM) | relative viability (Idelalisib + Foretinib; first compound 1.265 µM) | relative viability (Idelalisib + Foretinib; first compound 4 µM) | relative viability (Idelalisib + Phenformin; first compound 0.04 µM) | relative viability (Idelalisib + Phenformin; first compound 0.1265 µM) | relative viability (Idelalisib + Phenformin; first compound 0.4 µM) | relative viability (Idelalisib + Phenformin; first compound 1.265 µM) | relative viability (Idelalisib + Phenformin; first compound 4 µM) | relative viability (Pemetrexed + Dasatinib; first compound 0.002 µM) | relative viability (Pemetrexed + Dasatinib; first compound 0.006325 µM) | relative viability (Pemetrexed + Dasatinib; first compound 0.02 µM) | relative viability (Pemetrexed + Dasatinib; first compound 0.06325 µM) | relative viability (Pemetrexed + Dasatinib; first compound 0.2 µM)
201T | 0.985 | 1.01 | 0.885 | 1.06 | 0.867 | 1.09 | 1.07 | 0.741 | 1.11 | 0.993 | 0.497 | 0.416 | 0.328 | 0.488 | 0.423 | 0.59 | 0.554 | 0.592 | 0.559 | 0.507
A549 | 1.01 | 0.956 | 0.747 | 1.04 | 0.825 | 1.18 | 1.03 | 0.917 | 1 | 1.01 | 0.36 | 0.182 | – | 0.154 | 0.178 | – | – | – | – | –
A-427 | 1.14 | 1.01 | 0.883 | 1.01 | 0.904 | 1.27 | 0.946 | 0.962 | 1.04 | 1.06 | 0.36 | 0.318 | 0.287 | 0.372 | 0.328 | 0.618 | 0.696 | 0.711 | 0.689 | 0.664
ABC-1 | 0.917 | 0.938 | 0.955 | 0.895 | 0.961 | 1.09 | 1.06 | 0.853 | 0.963 | 0.977 | 0.243 | 0.254 | 0.231 | 0.267 | 0.217 | 0.785 | 0.591 | 0.626 | 0.546 | 0.422
BEN | 1.05 | 0.883 | 0.975 | 0.968 | 0.875 | 0.751 | 0.567 | 0.539 | 0.856 | 0.661 | 0.277 | 0.27 | 0.262 | 0.28 | 0.281 | 0.374 | 0.288 | 0.345 | 0.303 | 0.349
CAL-12T | 1.1 | 1.08 | 1.01 | 1.11 | 1.08 | 1.27 | 1.13 | 1.09 | 1.16 | 1.39 | 0.622 | 0.614 | 0.507 | 0.65 | 0.67 | 0.327 | 0.322 | 0.515 | 0.43 | 0.5
COR-L23 | 1.12 | 1.05 | 0.931 | 1.14 | 0.949 | 1.12 | 1.02 | 0.982 | 1.08 | 0.898 | 0.439 | 0.39 | 0.411 | 0.433 | 0.517 | 0.457 | 0.468 | 0.396 | 0.263 | 0.135
COR-L 105 | 1.03 | 0.997 | 0.802 | 0.976 | 0.752 | 1.01 | 1.34 | 0.992 | 1.01 | 0.672 | 0.592 | 0.473 | 0.433 | 0.564 | 0.421 | 0.349 | 0.216 | 0.399 | 0.363 | 0.398
Calu-6 | 1.04 | 1.04 | 0.977 | 0.998 | 0.947 | 0.895 | 0.909 | 0.844 | 0.894 | 0.767 | – | – | – | – | – | – | – | – | – | –
ChaGo-K-1 | 1.09 | 0.914 | 0.946 | 1.02 | 0.992 | 1.02 | 0.919 | 0.766 | 0.931 | 0.82 | 0.49 | 0.453 | 0.424 | 0.477 | 0.436 | 0.59 | 0.555 | 0.591 | 0.266 | 0.237
EBC-1 | 1 | 1.1 | 0.986 | 0.965 | 0.88 | 0.0986 | 0.0952 | 0.0971 | 0.107 | 0.0962 | – | – | – | – | – | – | – | – | – | –
EKVX | 0.925 | 1.01 | 0.849 | 0.854 | 0.8 | 0.826 | 0.984 | 0.773 | 0.843 | 0.808 | 0.244 | 0.258 | 0.213 | 0.225 | 0.234 | 0.572 | 0.544 | 0.615 | 0.336 | 0.479
EMC-BAC-2 | 1.25 | 0.989 | 0.878 | 1.01 | 1.11 | 0.972 | 0.988 | 0.963 | 0.868 | 0.963 | 0.564 | 0.517 | 0.478 | 0.506 | 0.524 | 0.161 | 0.344 | 0.32 | 0.331 | 0.27
EPLC-272H | 1.07 | 0.9 | 0.815 | 0.902 | 0.873 | 0.793 | 0.667 | 0.662 | 0.635 | 0.517 | 0.302 | 0.291 | 0.308 | 0.257 | 0.265 | 0.328 | 0.382 | 0.419 | 0.299 | 0.297
H3255 | 1.06 | 0.946 | 0.925 | 0.959 | 0.879 | 0.641 | 0.569 | 0.853 | 0.939 | 0.921 | 0.359 | 0.329 | 0.351 | 0.352 | 0.336 | 0.236 | 0.403 | 0.429 | 0.362 | 0.29
HARA | 1.02 | 1.05 | 0.783 | 1.23 | 0.794 | 1.24 | 0.934 | 0.776 | 1.04 | 0.746 | 0.525 | 0.52 | 0.432 | 0.45 | 0.416 | 0.231 | 0.237 | 0.327 | 0.2 | 0.162
HCC-15 | 1.12 | 1.04 | 0.914 | 1.13 | 1.02 | 1.09 | 1.02 | 0.975 | 1.18 | 0.94 | 0.498 | 0.511 | 0.389 | 0.587 | 0.5 | 0.661 | 0.609 | 0.619 | 0.31 | 0.148
